The values that follow come from patent US11926641B2, “Phosphonamidate butyrophilin ligands” (UNIVERSITY OF IOWA RESEARCH FOUNDATION, priority 2018, dated 2024).

SMILES strings stand for the structures. Read-outs that look alike come from different tables or passages of the source.

One series has as its system human Vγ9Vδ2 T cells. The series is described as follows: Expansion of Vγ9Vδ2 T cells from peripheral blood mononuclear cells. It counts as cell-based. To be noted: ratio of expansion EC50 values. As to the method: Expansion of Vγ9Vδ2 T cells. […] Negative controls contained cells with interleukin 2 in the absence of test compounds. […] All experiments were performed at least three times using cells from at least two different donors.

The subject of another series is Vγ9Vδ2 T cells. The series is described as follows: ELISA for interferon γ: Vγ9Vδ2 T cells mixed with compound-loaded K562 cells. It counts as cell-based. To be noted: Homo sapiens; K562 cells loaded for 4 hours with test compound; 3:1 effector:target; 20 hours; read-out: EC50 [μM] (95% CI), interferon γ production by Vγ9Vδ2 T cells. As to the method: ELISA for interferon γ. Interferon γ was measured by ELISA as previously described and according to manufacturer's directions (see Kilcollins, A. M., et al., J. Immunol. 2016, 197, 419-428; and Shippy, R. R., et al., J Med. Chem. 2017, 60, 2373-2382. Briefly, K562 cells were treated with test compounds for 4 hours, washed, then mixed with V79Vδ2 T cells that had been purified by negative selection. Each well contained a 3:1 effector: target ratio in 200 μL. After 20 hours, the concentration of interferon γ in the supernatant was determined. Data for representative compounds of the invention is shown in Table 2 (see FIG. 4).
Background: ELISA stands for enzyme-linked immunosorbent assay.

A short description of another series: in vitro. It counts as cell-based. To be noted: human. The protocol: Cell viability. Viability assays were performed using K562 cells with various concentrations of test compounds. K562 cells (0.5×10^4 cells in 100 μL of RPMI media) were distributed into each well of a 96-well plate. Phosphonamidates were added for 72 hours, during the last 2 hours the cell-QB reagent was added, following which signals were quantified with a fluorescence plate reader. Viable cells were expressed as a percentage of untreated control cells after subtraction of a media-only blank.

The nature of series [1]: Stability in 50% pooled human plasma in PBS (LCMS). It counts as in vitro ADME.
Protocol: Stability studies. Pooled human plasma was diluted to 50% with phosphate buffered saline at pH 7.5. Test compounds were added at a final concentration of 100 μM in a volume of 100 μL. Compounds were incubated for various times as indicated in the text, then extracted with 300 μL of LCMS grade acetonitrile and vigorous mixing. Insoluble debris was pelleted by centrifugation at 10,000 rcf for 2 minutes. 10 μL of the extract was evaluated by LCMS with a Waters Synapt G2-Si Mass Spectrometer in positive mode using a gradient of water and acetonitrile and a C18 column. The gradient started at 25% acetonitrile then increased to 80% acetonitrile over 9 minutes and held there for 1 minute before re-equilibration. […] The integrated values of these peaks were compared to those of t=0 minutes in plasma for each test compound and expressed as a fraction of the initial compound that was remaining at a given time point.
For series [2] the following is noted: cited from earlier work.
Where [3] appears, read: 72 hour, read-out: IC50 [μM], cytotoxicity against K562 cells.

For orientation: EC50 means the concentration giving half of the maximal effect. A word on the IC50: it is the concentration needed to halve the response being measured. Turning to `COC(=O)CNP(=O)(CC/C=C(\C)CO)Oc1ccc2ccccc2c1` (centres unmarked) [Compound 7, Methyl 2-[[[(E)-5-hydroxy-4-methyl-pent-3-enyl]-(2-naphthyloxy)phosphoryl]amino]acetate], in the series on human Vγ9Vδ2 T cells, the “Fold difference vs cmpd 10” value is listed as 6900 and the “Fold difference vs cmpd 11” value is listed as 9.3. For the same compound, in the series on Vγ9Vδ2 T cells, the half-maximal effective concentration (EC50) turned out to be 0.12 µM. In the series “in vitro” (setting [3]), the half-maximal inhibitory concentration (IC50) at 72 h is > 100 µM. For the same compound, in series [1], the t1/2 is given as >24 h.

For `C/C(=C\CCP(=O)(NCC(=O)OC(C)C)Oc1ccccc1)CO` (centres unmarked) [Compound 3, Isopropyl 2-[[[(E)-5-hydroxy-4-methyl-pent-3-enyl]-phenoxy-phosphoryl]amino]acetate], in the series with human Vγ9Vδ2 T cells, the “Fold difference vs cmpd 10” value is reported as 3600 and the “Fold difference vs cmpd 11” value worked out at 4.9. For the same compound, the EC50 in the series on Vγ9Vδ2 T cells was 0.74 µM. Also, the IC50 at 72 h in “in vitro” (setting [3]) stood at 23 µM. Further, in series [1], the t1/2 is listed as >24 h.

`C/C(=C\CCP(=O)(OCOC(=O)C(C)(C)C)OCOC(=O)C(C)(C)C)CO` [Compound 104, reference compound] came in with a t1/2 in series [1] of 0.14 h.

As for `C/C(=C\CCP(=O)(NCC(=O)OC(C)C)Oc1cccc2ccccc12)CO` (centres unmarked) [Compound 6, Isopropyl 2-[[[(E)-5-hydroxy-4-methyl-pent-3-enyl]-(1-naphthyloxy)phosphoryl]amino]acetate], in the series on human Vγ9Vδ2 T cells, the “Fold difference vs cmpd 10” value is listed as 12000 and the “Fold difference vs cmpd 11” value worked out at 16. In the series on Vγ9Vδ2 T cells, the EC50 stood at 0.29 µM. In addition, in the series “in vitro” (setting [3]), the IC50 at 72 h was > 100 µM. In series [1], the t1/2 is >24 h.

Take `Oc1cccc2ccccc12` [Compound 1-naphthol, 1-naphthol, reference compound]: in the series “in vitro”, the IC50 at 72 h is > 100 µM.

`COC(=O)CNP(=O)(CC/C=C(\C)CO)Oc1ccccc1` (centres unmarked) [Compound 1, Methyl 2-[[[(E)-5-hydroxy-4-methyl-pent-3-enyl]-phenoxy-phosphoryl]amino]acetate]: in the series with human Vγ9Vδ2 T cells, the “Fold difference vs cmpd 10” value is listed as 2700 and the “Fold difference vs cmpd 11” value came to 3.6. Also, in the series on Vγ9Vδ2 T cells, the EC50 is 0.46 µM. Further, the IC50 at 72 h in “in vitro” (setting [3]) was > 100 µM. The t1/2 in series [1] is >24 h.

Regarding `C/C(=C\CCP(=O)(NCC(=O)OC(C)C)Oc1ccc2ccccc2c1)CO` (centres unmarked) [Compound 9, Isopropyl 2-[[[(E)-5-hydroxy-4-methyl-pent-3-enyl]-(2-naphthyloxy)phosphoryl]amino]acetate], in the series on human Vγ9Vδ2 T cells, the “Fold difference vs cmpd 10” value is 4900 and the “Fold difference vs cmpd 11” value was 6.6. Besides, the EC50 with Vγ9Vδ2 T cells turned out to be 0.21 µM. Also, the IC50 at 72 h in the series “in vitro” (setting [3]) is > 100 µM. In addition, the t1/2 in series [1] is given as >24 h.

Turning to `COC(=O)CNP(=O)(CC/C=C(\C)CO)Oc1cccc2ccccc12` (centres unmarked) [Compound 4, Methyl 2-[[[(E)-5-hydroxy-4-methyl-pent-3-enyl]-(1-naphthyloxy)phosphoryl]amino]acetate], in the series on human Vγ9Vδ2 T cells, the “Fold difference vs cmpd 10” value is 9100 and the “Fold difference vs cmpd 11” value was 12. Moreover, the EC50 with Vγ9Vδ2 T cells turned out to be 0.13 µM. Also, the half-maximal inhibitory concentration (IC50) at 72 h in the series “in vitro” (setting [3]) amounted to 40 µM. Moreover, the t1/2 in series [1] is >24 h.

Turning to `CCOC(=O)CNP(=O)(CC/C=C(\C)CO)Oc1ccccc1` (centres unmarked) [Compound 2, Ethyl 2-[[[(E)-5-hydroxy-4-methyl-pent-3-enyl]-phenoxy-phosphoryl]amino]acetate], the EC50 in the series with Vγ9Vδ2 T cells was determined as 0.17 µM. For the same compound, the IC50 at 72 h in the series “in vitro” (setting [3]) was > 100 µM.

For the compound `CCOC(=O)CNP(=O)(CC/C=C(\C)CO)Oc1ccc2ccccc2c1` (centres unmarked) [Compound 8, Ethyl 2-[[[(E)-5-hydroxy-4-methyl-pent-3-enyl]-(2-naphthyloxy)phosphoryl]amino]acetate], in the series with human Vγ9Vδ2 T cells, the “Fold difference vs cmpd 10” value amounted to 7500 and the “Fold difference vs cmpd 11” value is 10. Moreover, the EC50 in the series on Vγ9Vδ2 T cells came out at 0.093 µM. In addition, the IC50 at 72 h in “in vitro” (setting [3]) was determined as 28 µM. Besides, the t1/2 in series [1] was >24 h.

Regarding `C/C(=C\COP(=O)(O)OP(=O)(O)O)CO` [HMBPP], in series [2], the stability in plasma result was “not stable in plasma”.

On to `Oc1ccccc1` [Phenol, reference compound], for which the IC50 in the series “in vitro” is > 100000 nM.

On to `CCOC(=O)CNP(=O)(CC/C=C(\C)CO)Oc1cccc2ccccc12` (centres unmarked) [Compound 5, Ethyl 2-[[[(E)-5-hydroxy-4-methyl-pent-3-enyl]-(1-naphthyloxy)phosphoryl]amino]acetate], for which, in the series with human Vγ9Vδ2 T cells, the “Fold difference vs cmpd 10” value is 11000 and the “Fold difference vs cmpd 11” value amounted to 15. The EC50 in the series on Vγ9Vδ2 T cells is 0.062 µM. Further, in the series “in vitro” (setting [3]), the IC50 at 72 h amounted to 24 µM. The t1/2 in series [1] was >24 h.

Regarding `Oc1ccc2ccccc2c1` [Compound 2-naphthol, 2-naphthol, reference compound], in “in vitro”, the half-inhibitory concentration (IC50) at 72 h is > 100 µM.
